Reference: ChEMBL document CHEMBL3885881, “DrugMatrix”

Species on record: Rattus norvegicus
Assay: DrugMatrix - Regimen: Daily Repeat
Format: toxicity, organism-based, Sprague-Dawley
Parameters: regimen Daily Repeat, gender Male, age 6-8 weeks
Settings: in vivo, po, route oral GAVAGE, vehicle 100 % WATER; for BASOPHIL / EOSINOPHIL / ERYTHROCYTE COUNT / HEMATOCRIT / HEMOGLOBIN / LEUKOCYTE COUNT / LYMPHOCYTE / MEAN CORPUSCULAR HEMOGLOBIN / MEAN CORPUSCULAR HEMOGLOBIN CONCENTRATION / MEAN CORPUSCULAR VOLUME / MONOCYTE / NEUTROPHIL / PLATELET COUNT: tissue Blood; for ALANINE AMINOTRANSFERASE / ALBUMIN / ALKALINE PHOSPHATASE / ASPARTATE AMINOTRANSFERASE / BLOOD UREA NITROGEN / CHLORIDE / CHOLESTEROL / CREATINE PHOSPHOKINASE / CREATININE / GLUCOSE / PHOSPHORUS / POTASSIUM / SODIUM / TOTAL BILIRUBIN / TOTAL PROTEIN: tissue Plasma
[1] = 0 mg/kg, 72 h, dose level Control, time 3 day
[2] = 0 mg/kg, 120 h, dose level Control, time 5 day
[3] = 100 mg/kg, 72 h, dose level Low, time 3 day
[4] = 100 mg/kg, 120 h, dose level Low, time 5 day
[5] = 1000 mg/kg, 72 h, dose level High, time 3 day
[6] = 1000 mg/kg, 120 h, dose level High, time 5 day

Oc1cccc(O)c1O [PYROGALLOL]
BASOPHIL [1]: 0%
EOSINOPHIL [1]: 0.5%
ERYTHROCYTE COUNT [1]: 5.8 x10E6/uL
HEMATOCRIT [1]: 35.07%
HEMOGLOBIN [1]: 14.12 G/DL
LEUKOCYTE COUNT [1]: 13.7 x10E3/uL
LYMPHOCYTE [1]: 82.33%
MEAN CORPUSCULAR HEMOGLOBIN [1]: 24.38 pg
MEAN CORPUSCULAR HEMOGLOBIN CONCENTRATION [1]: 40.28 G/DL
MEAN CORPUSCULAR VOLUME [1]: 60.52 fL
MONOCYTE [1]: 2.67%
NEUTROPHIL [1]: 14.5%
PLATELET COUNT [1]: 911.5 x10E3/uL
ALANINE AMINOTRANSFERASE [1]: 36.83 u/L
ALBUMIN [1]: 3.75 G/DL
ALKALINE PHOSPHATASE [1]: 399.83 u/L
ASPARTATE AMINOTRANSFERASE [1]: 66 u/L
BLOOD UREA NITROGEN [1]: 14.67 mg/dL
CHLORIDE [1]: 101.67 MEQ/L
CHOLESTEROL [1]: 66.33 mg/dL
CREATINE PHOSPHOKINASE [1]: 139.5 u/L
CREATININE [1]: 0.92 mg/dL
GLUCOSE [1]: 175 mg/dL
PHOSPHORUS [1]: 11.42 mg/dL
POTASSIUM [1]: 7.03 MEQ/L
SODIUM [1]: 148.5 MEQ/L
TOTAL BILIRUBIN [1]: 1.13 mg/dL
TOTAL PROTEIN [1]: 6.87 G/DL
BASOPHIL [2]: 0%
EOSINOPHIL [2]: 0.2%
ERYTHROCYTE COUNT [2]: 6.02 x10E6/uL
HEMATOCRIT [2]: 36.48%
HEMOGLOBIN [2]: 14.38 G/DL
LEUKOCYTE COUNT [2]: 12.34 x10E3/uL
LYMPHOCYTE [2]: 83%
MEAN CORPUSCULAR HEMOGLOBIN [2]: 23.92 pg
MEAN CORPUSCULAR HEMOGLOBIN CONCENTRATION [2]: 39.44 G/DL
MEAN CORPUSCULAR VOLUME [2]: 60.66 fL
MONOCYTE [2]: 3%
NEUTROPHIL [2]: 13.8%
PLATELET COUNT [2]: 1190.6 x10E3/uL
ALANINE AMINOTRANSFERASE [2]: 43 u/L
ALBUMIN [2]: 3.73 G/DL
ALKALINE PHOSPHATASE [2]: 393 u/L
ASPARTATE AMINOTRANSFERASE [2]: 62.33 u/L
BLOOD UREA NITROGEN [2]: 16.33 mg/dL
CHLORIDE [2]: 101.67 MEQ/L
CHOLESTEROL [2]: 65.5 mg/dL
CREATINE PHOSPHOKINASE [2]: 130.67 u/L
CREATININE [2]: 0.58 mg/dL
GLUCOSE [2]: 180.67 mg/dL
PHOSPHORUS [2]: 11.28 mg/dL
POTASSIUM [2]: 7.05 MEQ/L
SODIUM [2]: 148.17 MEQ/L
TOTAL BILIRUBIN [2]: 0.72 mg/dL
TOTAL PROTEIN [2]: 6.83 G/DL
BASOPHIL [3]: 0%
EOSINOPHIL [3]: 0.5%
ERYTHROCYTE COUNT [3]: 5.78 x10E6/uL
HEMATOCRIT [3]: 35.75%
HEMOGLOBIN [3]: 13.85 G/DL
LEUKOCYTE COUNT [3]: 11.7 x10E3/uL
LYMPHOCYTE [3]: 88%
MEAN CORPUSCULAR HEMOGLOBIN [3]: 24.05 pg
MEAN CORPUSCULAR HEMOGLOBIN CONCENTRATION [3]: 38.75 G/DL
MEAN CORPUSCULAR VOLUME [3]: 61.95 fL
MONOCYTE [3]: 1%
NEUTROPHIL [3]: 10.5%
PLATELET COUNT [3]: 1307.5 x10E3/uL
ALANINE AMINOTRANSFERASE [3]: 36.33 u/L
ALBUMIN [3]: 3.67 G/DL
ALKALINE PHOSPHATASE [3]: 323 u/L
ASPARTATE AMINOTRANSFERASE [3]: 59.33 u/L
BLOOD UREA NITROGEN [3]: 13 mg/dL
CHLORIDE [3]: 101.33 MEQ/L
CHOLESTEROL [3]: 71 mg/dL
CREATINE PHOSPHOKINASE [3]: 134.67 u/L
CREATININE [3]: 0.6 mg/dL
GLUCOSE [3]: 200 mg/dL
PHOSPHORUS [3]: 13.27 mg/dL
POTASSIUM [3]: 7.37 MEQ/L
SODIUM [3]: 149.67 MEQ/L
TOTAL BILIRUBIN [3]: 0.5 mg/dL
TOTAL PROTEIN [3]: 6.67 G/DL
BASOPHIL [4]: 0%
EOSINOPHIL [4]: 0%
ERYTHROCYTE COUNT [4]: 6.06 x10E6/uL
HEMATOCRIT [4]: 36.63%
HEMOGLOBIN [4]: 14.83 G/DL
LEUKOCYTE COUNT [4]: 14.27 x10E3/uL
LYMPHOCYTE [4]: 90.67%
MEAN CORPUSCULAR HEMOGLOBIN [4]: 24.53 pg
MEAN CORPUSCULAR HEMOGLOBIN CONCENTRATION [4]: 40.53 G/DL
MEAN CORPUSCULAR VOLUME [4]: 60.5 fL
MONOCYTE [4]: 2.33%
NEUTROPHIL [4]: 7%
PLATELET COUNT [4]: 1156 x10E3/uL
ALANINE AMINOTRANSFERASE [4]: 34.67 u/L
ALBUMIN [4]: 3.8 G/DL
ALKALINE PHOSPHATASE [4]: 375.67 u/L
ASPARTATE AMINOTRANSFERASE [4]: 59 u/L
BLOOD UREA NITROGEN [4]: 14 mg/dL
CHLORIDE [4]: 103.67 MEQ/L
CHOLESTEROL [4]: 67.33 mg/dL
CREATINE PHOSPHOKINASE [4]: 95.67 u/L
CREATININE [4]: 0.6 mg/dL
GLUCOSE [4]: 184.67 mg/dL
PHOSPHORUS [4]: 11.97 mg/dL
POTASSIUM [4]: 6.8 MEQ/L
SODIUM [4]: 151.67 MEQ/L
TOTAL BILIRUBIN [4]: 0.5 mg/dL
TOTAL PROTEIN [4]: 6.87 G/DL
BASOPHIL [5]: 0%
EOSINOPHIL [5]: 0.67%
ERYTHROCYTE COUNT [5]: 4.74 x10E6/uL
HEMATOCRIT [5]: 27.07%
HEMOGLOBIN [5]: 11.3 G/DL
LEUKOCYTE COUNT [5]: 18.97 x10E3/uL
LYMPHOCYTE [5]: 64%
MEAN CORPUSCULAR HEMOGLOBIN [5]: 23.87 pg
MEAN CORPUSCULAR HEMOGLOBIN CONCENTRATION [5]: 41.93 G/DL
MEAN CORPUSCULAR VOLUME [5]: 57.07 fL
MONOCYTE [5]: 1%
NEUTROPHIL [5]: 34.33%
PLATELET COUNT [5]: 1411 x10E3/uL
ALANINE AMINOTRANSFERASE [5]: 107.67 u/L
ALBUMIN [5]: 3.83 G/DL
ALKALINE PHOSPHATASE [5]: 223 u/L
ASPARTATE AMINOTRANSFERASE [5]: 109.33 u/L
BLOOD UREA NITROGEN [5]: 10.33 mg/dL
CHLORIDE [5]: 101.67 MEQ/L
CHOLESTEROL [5]: 67.33 mg/dL
CREATINE PHOSPHOKINASE [5]: 171 u/L
CREATININE [5]: 0.63 mg/dL
GLUCOSE [5]: 206.33 mg/dL
PHOSPHORUS [5]: 12.3 mg/dL
POTASSIUM [5]: 6.63 MEQ/L
SODIUM [5]: 149 MEQ/L
TOTAL BILIRUBIN [5]: 1.13 mg/dL
TOTAL PROTEIN [5]: 6.83 G/DL
BASOPHIL [6]: 0%
EOSINOPHIL [6]: 0%
ERYTHROCYTE COUNT [6]: 3.96 x10E6/uL
HEMATOCRIT [6]: 24.15%
HEMOGLOBIN [6]: 9.8 G/DL
LEUKOCYTE COUNT [6]: 13 x10E3/uL
LYMPHOCYTE [6]: 85.5%
MEAN CORPUSCULAR HEMOGLOBIN [6]: 24.9 pg
MEAN CORPUSCULAR HEMOGLOBIN CONCENTRATION [6]: 40.55 G/DL
MEAN CORPUSCULAR VOLUME [6]: 61.35 fL
MONOCYTE [6]: 2.5%
NEUTROPHIL [6]: 12%
PLATELET COUNT [6]: 1586 x10E3/uL
ALANINE AMINOTRANSFERASE [6]: 45 u/L
ALBUMIN [6]: 3.85 G/DL
ALKALINE PHOSPHATASE [6]: 303 u/L
ASPARTATE AMINOTRANSFERASE [6]: 67 u/L
BLOOD UREA NITROGEN [6]: 12 mg/dL
CHLORIDE [6]: 105 MEQ/L
CHOLESTEROL [6]: 49.5 mg/dL
CREATINE PHOSPHOKINASE [6]: 75 u/L
CREATININE [6]: 0.45 mg/dL
GLUCOSE [6]: 223.5 mg/dL
PHOSPHORUS [6]: 12.75 mg/dL
POTASSIUM [6]: 7.2 MEQ/L
SODIUM [6]: 148.5 MEQ/L
TOTAL BILIRUBIN [6]: 0.9 mg/dL
TOTAL PROTEIN [6]: 7.05 G/DL
